The values below come from US20030212052A1, “Use of ursdeoxycholic acid for potentiation of the phototoxic effect of photodynamic therapy” (priority 2003, published 2003).

The test system of data set [1] is murine hepatoma 1c1c7 cell line. The data set can be described thus: Photokilling assessed by clonogenic assay after SnET2 PDT. The format is cell-based. Particulars: for number of colonies: irradiation 270 mJ/cm^2 at 630-700 nm, colonies counted four days later, mean±SD of 3-4 plates. On the procedure: Cell lines. Studies have been carried out with the murine leukemia L1210 and murine hepatoma hepa 1c1c7 cell lines along with primary rat hepatocyte cultures. Except for the latter, cells are grown in tissue culture. The L1210 cell line is grown in suspension culture in Fischer's medium containing 10% horse serum. The murine hepatoma 1c1c7 cell line was obtained from Dr. J. Whitlock, Jr. (Stanford University, CA). Cells were cultured on either commercially available plastic tissue cutureware, or poly-L-lysine coated glass coverslips or discs, and grown at 37° C. in a-minimal essential medium (aMEM) containing 5% fetal bovine serum and antibiotics. Cultures were passaged by incubation with a trypsin+EDTA solution (0.25% trypsin, 1 mM EDTA in Hank's Balanced Salts Solution). Photokilling was assessed by clonogenic assays involving the plating of known numbers of cells. After several days in cell culture, the number of resulting colonies reflected the number of viable cells that survive PDT. Freshly prepared suspensions of 1c1c7 cells were plated in 60 mm culture dishes at a density of 500 cells/dish. Approximately 18 hours later cultures were treated with PDT sensitizer and/or UDCA. After 30 minutes of incubation culture dishes were washed once with complete medium and then refed with complete medium. Refed cultures were subsequently irradiated and returned to incubators. Cultures were refed every third day, and stained with crystal violet once colonies were of sufficient size to score. […] After irradiation of 270 mJ/cm^2 at 630-700 nm, the plates were incubated and the colonies were counted four days later. The data represents the mean±a standard deviation of three to four plates.

For data set [2] the following is noted: cited from earlier work.
For data set [3] the following is noted: cited from earlier work. This is another data set of the same source.
The conditions of data set [4]: UDCA analogs/conjugates.
The next data set has as its system hepatoma cell line. The experiment in a line: Promotion of PDT efficacy with lysosomal sensitizer in the hepatoma cell line. The format is cell-based, murine. As to conditions: lysosomal sensitizer Npe6, hepatoma cell line. On the procedure:
Cell lines. Studies have been carried out with the murine leukemia L1210 and murine hepatoma hepa 1c1c7 cell lines along with primary rat hepatocyte cultures. Except for the latter, cells are grown in tissue culture. The L1210 cell line is grown in suspension culture in Fischer's medium containing 10% horse serum. The murine hepatoma 1c1c7 cell line was obtained from Dr. J. Whitlock, Jr. (Stanford University, CA). Cells were cultured on either commercially available plastic tissue cutureware, or poly-L-lysine coated glass coverslips or discs, and grown at 37° C. in a-minimal essential medium (aMEM) containing 5% fetal bovine serum and antibiotics. Cultures were passaged by incubation with a trypsin+EDTA solution (0.25% trypsin, 1 mM EDTA in Hank's Balanced Salts Solution). Determination of PDT efficacy. […] The cells were then lysed and levels of caspase-3 activity are assessed using a fluorescent plate reader. […] These substrates were cleaved by caspase-3 to form fluorescent products that were then detected. The plate readers take periodic readings of the emerging fluorescence, permitting a rate to be assessed. […] Protein levels in the lysates were also determined, so that the net result was in terms of caspase-3 activity per mg protein per minute. Photokilling was assessed by clonogenic assays involving the plating of known numbers of cells. […]

`C[C@H](CCC(=O)O)[C@H]1CC[C@H]2[C@@H]3[C@@H](O)C[C@@H]4C[C@H](O)CC[C@]4(C)[C@H]3CC[C@]12C` [UDCA, ursodeoxycholic acid]: the number of colonies in data set [1] (UDCA 10 micromoles + SnET2 (2-mM)) turned out to be 12±5 colonies; in data set [1] (UDCA 100 micromoles + SnET2 (2-mM)), 1±0.7 colonies. Also, the colonies as percent worked out at 20% in data set [1] (UDCA 10 micromoles + SnET2 PDT) and 1.3% in data set [1] (UDCA 100 micromoles + SnET2 PDT). Moreover, the solubility in chloraform result in data set [2] (chloraform) is “slightly soluble”. In data set [2] (ethanol and glacial acetic acid), the “solubility in ethanol and glacial acetic acid” value is recorded as “freely soluble”. Also, the solubility in ether entry in data set [2] (ether) is recorded as “sparingly soluble”. In data set [2] (water), the solubility in water entry is reported as “practically insoluble”. In addition, the hepatic extraction entry in data set [3] (once absorbed after oral administration, absence of liver disease) was “about 50%”. Also, in data set [3] (oral administration, passive diffusion), the “absorption after oral administration” value was “incomplete”.

For `C[C@H](CCC(=O)NCCS(=O)(=O)O)[C@H]1CC[C@H]2[C@@H]3[C@@H](O)C[C@@H]4C[C@H](O)CC[C@]4(C)[C@H]3CC[C@]12C` [UDCA-taurine], the “promotion of photodynamic therapeutic photokilling” value in data set [4] is listed as “effective”.

With `C=Cc1c(C)c2cc3nc(c(CC(=O)N[C@@H](CC(=O)[O-])C(=O)[O-])c4nc(cc5[nH]c(cc1[nH]2)c(C)c5CC)C(C)=C4C(=O)[O-])[C@@H](CCC(=O)[O-])[C@@H]3C.[Na+].[Na+].[Na+].[Na+]` [Npe6], the “promotion of photodynamic therapy efficacy by the potentiator” value in the data set with hepatoma cell line is given as “no evidence of promotion”.

Regarding `C[C@H](CCC(=O)NCC(=O)O)[C@H]1CC[C@H]2[C@@H]3[C@@H](O)C[C@@H]4C[C@H](O)CC[C@]4(C)[C@H]3CC[C@]12C` [UDCA-glycine], in data set [4], the “promotion of photodynamic therapeutic photokilling” value is given as “effective”.
